The source of these data is US8748575B2, “Therapeutic peptides” (Combimab, Inc., priority 2010, dated 2014).

One experiment relates to T84 cells (GC-C). The experiment in a line: Intact T84 cell cGMP accumulation assay. In kind it is cell-based, Human. More on the design: key to CGMP accumulation assay: 1+ (lowest activity/potency); ++: Results are graded from 1+ (lowest activity/potency) to 5+ (highest activity/potency); +++: Results are graded from 1+ (lowest activity/potency) to 5+ (highest activity/potency); ++++: Results are graded from 1+ (lowest activity/potency) to 5+ (highest activity/potency); +++++: 5+ (highest activity/potency). To be noted: for CGMP accumulation assay: graded activity/potency, T84 cells; for activity in the cGMP accumulation assay: FIG. 22, compared to STa peptide. The method, then:
The intact T84 cell assay was used to detect the accumulation of cGMP, the product of agonism, upon interaction with a compound (Visweswariah et al., 1992). Human colorectal adenocarcinoma T84 cells were grown to confluence in a 24 well plate using DMEM/F12 medium supplemented with 10% FBS. The media was aspirated from each well and the cells were washed three times with Dulbecco's PBS (1×, no Ca2+ or Mg2+). The cells were then incubated for 30 minutes at 37° C. with 1 mM […] (IBMX) in Optimem medium (no FBS), either with or without potential antagonists. After incubation under these conditions, a 10× concentrated stock of a known GC-C agonist (e.g., STa (5-18)) in PBS was added to each well and the incubation continued for an additional 15 min at 37° C.
The reaction was stopped by the addition of 200 μL of Passive Lysis Buffer (Promega) to each well. The supernatant was removed for cGMP quantitation by RIA using ^125I-labeled cGMP 54 antibody relative to an external cGMP standard curve. The cells were scraped from the surface for protein content determination using a BioRad Protein Assay.

The target in the next experiment is T1, GC-C (Mus musculus, UniProt Q3UWA6).
T1 construct: freshly prepared mouse intestine membranes; from tissue; host or cells: mouse intestine (membrane preparation)
T1 sequence (Q3UWA6 20-1072): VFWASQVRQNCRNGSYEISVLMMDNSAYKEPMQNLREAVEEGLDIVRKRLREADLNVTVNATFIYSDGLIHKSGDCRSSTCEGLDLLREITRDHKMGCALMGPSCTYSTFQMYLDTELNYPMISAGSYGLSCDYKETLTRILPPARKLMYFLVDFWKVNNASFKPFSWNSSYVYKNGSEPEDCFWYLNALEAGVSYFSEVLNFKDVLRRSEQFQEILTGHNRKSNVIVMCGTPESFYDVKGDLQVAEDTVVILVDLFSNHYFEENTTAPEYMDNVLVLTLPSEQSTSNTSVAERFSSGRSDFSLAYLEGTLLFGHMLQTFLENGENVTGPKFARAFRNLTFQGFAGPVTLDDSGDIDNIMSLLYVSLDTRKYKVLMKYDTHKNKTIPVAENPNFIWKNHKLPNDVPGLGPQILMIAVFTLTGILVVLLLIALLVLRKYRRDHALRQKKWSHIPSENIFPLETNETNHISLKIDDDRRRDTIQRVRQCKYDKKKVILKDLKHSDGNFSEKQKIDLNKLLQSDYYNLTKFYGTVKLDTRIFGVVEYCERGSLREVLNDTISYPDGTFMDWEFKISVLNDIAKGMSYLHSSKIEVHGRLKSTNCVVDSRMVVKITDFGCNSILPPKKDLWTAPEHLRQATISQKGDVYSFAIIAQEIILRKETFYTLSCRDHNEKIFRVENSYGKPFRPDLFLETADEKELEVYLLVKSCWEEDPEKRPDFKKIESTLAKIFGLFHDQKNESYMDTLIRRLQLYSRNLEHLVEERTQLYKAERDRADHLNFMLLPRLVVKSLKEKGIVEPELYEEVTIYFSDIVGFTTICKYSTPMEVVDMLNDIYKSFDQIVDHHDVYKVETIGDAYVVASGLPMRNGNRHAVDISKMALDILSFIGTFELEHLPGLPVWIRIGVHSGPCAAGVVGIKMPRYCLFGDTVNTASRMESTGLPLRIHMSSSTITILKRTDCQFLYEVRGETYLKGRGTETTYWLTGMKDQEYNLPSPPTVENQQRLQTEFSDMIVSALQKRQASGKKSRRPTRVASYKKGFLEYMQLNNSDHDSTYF
The experiment can be described thus: Intestinal membrane 125I-STa competitive radioligand binding assay. To be noted: for I-125 binding assay: graded activity/potency, mouse intestinal membranes. More on the design: key to I-125 binding assay: 1+ (lowest activity/potency); ++: Results are graded from 1+ (lowest activity/potency) to 5+ (highest activity/potency); +++: Results are graded from 1+ (lowest activity/potency) to 5+ (highest activity/potency); ++++: Results are graded from 1+ (lowest activity/potency) to 5+ (highest activity/potency); +++++: 5+ (highest activity/potency). The method, then:
Intestinal membrane 1-125 labeled radioligand binding assay. The intestinal membrane radioligand binding assay was used to assess whether a novel compound could displace ^125I-STa from GC-C (Crane et al., 1992). Each analog was analyzed for its ability to displace ^125I-STa from GC-C in a competitive binding assay. ^125I-ST Displaced” was determined by co-incubating STa analogs (10 μM) with 50,000 DPM of ^125I-STa (1-18) in the presence of mouse intestinal membranes. The displacement (n=3) for each analog was determined relative to a vehicle control.
Membranes were prepared from freshly harvested mouse intestines by first washing away the blood or feces with ice-cold Dulbecco's PBS. Washed organs were minced with a single-edged razor blade, followed by homogenization on ice in 50 mM Tris, pH 7.6, containing 1 mM EDTA, 1 mM PMSF, 1 mM DTT. Debris was then removed by a 15 minute centrifugation at 3,000×G and 4° C. The supernatant is then passed through successively smaller needles (18 gauge through 25 gauge) and frozen at −70° C. until used as a tissue homogenate. If intended for use as isolated membranes, the above homogenate was centrifuged (100,000×G) at 4° C. for 1 hour while fresh and the pellet was re-suspended in homogenization buffer.
The assay was performed in 96 well filter plates which were pre-incubated overnight with 200 μl of 0.3% polyethylenimine (w/v) and washed three times by aspiration with 300 μl of Wash Buffer (150 mM NaCl, 20 mM Sodium Phosphate pH=7.2, 1 mM EDTA) immediately before use. Into each well of was added 50 μl of 3× Binding buffer (150 mM Tris-HCl pH=7.6, 1.98 mM Cysteamine, 0.3% Bacitracin, 1350 mM NaCl, 3 mM EDTA), 40 μl of double-distilled water, 10 μl of either double-distilled water or cold ligand (50 uM STa (5-18) in double-distilled water), 10 μl of increasing concentrations (125 DPM/ul to 50,000 DPM/ul) of radiolabeled 125I -STa (1-18) and finally 40 μl (approximately 2 mg protein/ml) of freshly prepared mouse intestine membranes. The plates were then incubated with mixing at 37 C for two hr, washed successively with six 200 μl aliquots of Wash Buffer and aspirated to dryness. The filter bottoms of each well were punched into individual borosilicate tubes and bound radioactivity determined in a gamma counter. Protein content was determined on an aliquot of the mouse intestine membranes used in the Biorad Protein Assay.

Experiment [1] is described as follows: Mouse intestinal secretion assay (suckling mouse assay). In kind it is in vivo. More on the design: key to Mouse intestinal secretion assay (suckling mouse): 1+ (lowest activity/potency); ++: Results are graded from 1+ (lowest activity/potency) to 5+ (highest activity/potency); +++: Results are graded from 1+ (lowest activity/potency) to 5+ (highest activity/potency); ++++: Results are graded from 1+ (lowest activity/potency) to 5+ (highest activity/potency); +++++: 5+ (highest activity/potency). The settings on record: for Mouse intestinal secretion assay (suckling mouse): graded activity/potency. The method, then: A relevant disease model is the suckling mouse model in which STa (5-18) is deposited into the stomach of 3-4 day old mice, and the accumulation of fluid in their intestines is determined gravimetrically (Parkinson et al., 1994). All GCC peptides were formulated to the desired concentration in Dulbecco's PBS (1×, No Ca++, no Mg++) containing […] immediately prior to dosing. Proteinase inhibitors were prepared as stock solutions in PBS and added to dosing solutions by serial dilution, as needed. The dosing solution (50 μL) was delivered into the stomachs of 2-4 day old mice (3 per dosing group) using a plastic tube attached to the needle of a 1 mL tuberculin syringe. After 3 hours, the animals were sacrificed and dissected to determine the individual weights of the intestines and the rest of the carcass, respectively.

The mark [2] stands for this setting: FIG. 20, compared to ST peptide.
Setting [3] is: FIG. 21, compared to linaclotide.

“H2N Cys Cys Glu L-Thr Cys Cys Asn Pro Ala Cys Ala Gly Cys Tyr COOH (H-CCETCCNPACAGCY-OH; not fully specified (bridges); printed as Cys Cys Glu Thr Cys Cys Asn Pro Ala Cys Ala Gly Cys Tyr; cysteine pairing not given here) [Peptide B]”: in the experiment with T84 cells (GC-C), the CGMP accumulation assay entry is reported as “+++”. Also, the “activity in the cGMP accumulation assay” value in the experiment on T84 cells (GC-C) (second experiment) is reported as “lower than the STa peptide”. For the same substance, the “activity in the I-125 labeled radioligand binding assay” value in the experiment with GC-C (FIG. 18, compared to STa) was “activity comparable to STa”. Further, the I-125 binding assay entry in the experiment with GC-C was “++++”. Moreover, in experiment [1] (FIG. 26, compared to STa), the “activity in the mouse intestinal secretion assay” value was “lower activity”. Besides, in experiment [1], the “Mouse intestinal secretion assay (suckling mouse)” value is recorded as “+++”.
Turning to “H2N Cys Cys Glu Leu Cys Cys Asn Dhp Ala Cys Ala Gly Cys Tyr COOH (CCELCCNXACAGCY; not fully specified; non-natural residue Dhp; Modified Amino Acid (8)..(8): Xaa8 = Dhp = 3,4,-dihydro-Proline, D-Pro 3,4-Dehydroproline) [Peptide A]”, the “activity in the cGMP accumulation assay” value in the experiment with T84 cells (GC-C) and in the experiment with T84 cells (GC-C) (second experiment) was “higher than the STa peptide” each time. The CGMP accumulation assay result in the experiment on T84 cells (GC-C) is on record as “+++++”. In addition, the “activity in the I-125 labeled radioligand binding assay” value in the experiment with GC-C (FIG. 18, compared to STa) was “better activity than STa”; in the experiment with GC-C (FIG. 19, compared to linaclotide) it was “superior activity compared to linaclotide”; in the experiment with GC-C (setting [2]) it was “superior to ST peptide”; with GC-C (setting [3]) it was “superior to linaclotide”. Further, the I-125 binding assay entry in the experiment with GC-C is reported as “+++++”. Moreover, the “activity in the mouse intestinal secretion assay” value in experiment [1] (FIG. 24, compared to linaclotide) is recorded as “better activity than linaclotide”; in experiment [1] (FIG. 25, compared to STa peptide), “higher activity than the STa peptide”; in experiment [1] (FIG. 26, compared to STa), “higher activity than STa”. In addition, the “Mouse intestinal secretion assay (suckling mouse)” value in experiment [1] is given as “+++++”.
For the substance “H2N Cys Cys Glu Leu Cys Cys Asn HyPro Ala Cys Ala Gly Cys Tyr COOH (CCELCCNXACAGCY; not fully specified; non-natural hydroxy residue; Modified Amino Acid (8)..(8): Xaa8 = HyPro = Hydroxy-Proline, Hyp, Hydroxyproline) [Peptide C]”, the CGMP accumulation assay result in the experiment on T84 cells (GC-C) is recorded as “+++”. The “activity in the cGMP accumulation assay” value in the experiment on T84 cells (GC-C) (second experiment) is given as “lower than the STa peptide”. The “activity in the I-125 labeled radioligand binding assay” value in the experiment with GC-C (setting [2]) was “comparable to ST peptide”; with GC-C (setting [3]), “lower than linaclotide”. The I-125 binding assay result with GC-C is “++”.
Turning to “H2N Cys Cys Glu Leu Cys Cys Asn Thz Ala Cys Ala Gly Cys Tyr COOH (CCELCCNXACAGCY; not fully specified; non-natural residue Thz; Modified Amino Acid (8)..(8): Xaa8 = Thz = Thiazolidine (4-thiazolidine-2-carboxylic acid), Tzd) [Peptide D]”, the CGMP accumulation assay entry with T84 cells (GC-C) is “+++++”. The “activity in the cGMP accumulation assay” value in the experiment with T84 cells (GC-C) (second experiment) is recorded as “higher than the STa peptide”. Moreover, the “activity in the I-125 labeled radioligand binding assay” value with GC-C (setting [2]) is recorded as “superior to ST peptide”. The I-125 binding assay result with GC-C was “+++++”. Besides, the “activity in the mouse intestinal secretion assay” value in experiment [1] (FIG. 26, compared to STa) is recorded as “higher activity than STa”. The “Mouse intestinal secretion assay (suckling mouse)” value in experiment [1] is “+++++”.
